Experimental data: patent US20250302972A1, “FORMULATION” (ENA Respiratory Pty Ltd, priority 2021, published 2025)
Where “and” joins values, the source holds several entries; their conditions need not be identical. Equal entries are not always repeated.

Tests used:
Assay type in all cases: cell-based
human TLR2 = molecular target: T1, human TLR2 (Homo sapiens, UniProt O60603); assay: HEK-Blue hTLR2 Dose Response (NF-κB SEAP reporter); settings: for stimulatory (agonist) activity for hTLR2: HEK-Blue hTLR2
T1 construct: expressed in transfected cells; host or cells: HEK-Blue hTLR2
T1 sequence (O60603 21-784): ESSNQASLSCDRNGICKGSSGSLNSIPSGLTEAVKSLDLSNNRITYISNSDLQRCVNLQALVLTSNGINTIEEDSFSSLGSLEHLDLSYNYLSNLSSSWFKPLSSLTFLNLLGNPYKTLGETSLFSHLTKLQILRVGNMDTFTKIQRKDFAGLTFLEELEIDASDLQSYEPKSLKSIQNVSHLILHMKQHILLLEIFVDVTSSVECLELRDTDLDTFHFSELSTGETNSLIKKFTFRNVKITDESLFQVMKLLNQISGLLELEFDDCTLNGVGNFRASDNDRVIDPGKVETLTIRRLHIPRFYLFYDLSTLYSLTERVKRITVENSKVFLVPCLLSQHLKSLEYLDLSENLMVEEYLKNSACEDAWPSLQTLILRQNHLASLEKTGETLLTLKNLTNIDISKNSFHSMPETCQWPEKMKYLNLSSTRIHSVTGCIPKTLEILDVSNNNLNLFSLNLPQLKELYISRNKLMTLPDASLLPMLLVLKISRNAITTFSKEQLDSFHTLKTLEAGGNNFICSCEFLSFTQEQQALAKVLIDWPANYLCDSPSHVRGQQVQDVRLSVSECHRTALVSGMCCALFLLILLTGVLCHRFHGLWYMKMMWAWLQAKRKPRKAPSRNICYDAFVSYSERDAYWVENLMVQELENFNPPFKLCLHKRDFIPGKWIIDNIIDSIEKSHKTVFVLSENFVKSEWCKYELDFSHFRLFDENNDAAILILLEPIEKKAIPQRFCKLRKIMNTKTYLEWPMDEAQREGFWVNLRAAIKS
T1 sequence (Q9Y2C9 32-796 partner): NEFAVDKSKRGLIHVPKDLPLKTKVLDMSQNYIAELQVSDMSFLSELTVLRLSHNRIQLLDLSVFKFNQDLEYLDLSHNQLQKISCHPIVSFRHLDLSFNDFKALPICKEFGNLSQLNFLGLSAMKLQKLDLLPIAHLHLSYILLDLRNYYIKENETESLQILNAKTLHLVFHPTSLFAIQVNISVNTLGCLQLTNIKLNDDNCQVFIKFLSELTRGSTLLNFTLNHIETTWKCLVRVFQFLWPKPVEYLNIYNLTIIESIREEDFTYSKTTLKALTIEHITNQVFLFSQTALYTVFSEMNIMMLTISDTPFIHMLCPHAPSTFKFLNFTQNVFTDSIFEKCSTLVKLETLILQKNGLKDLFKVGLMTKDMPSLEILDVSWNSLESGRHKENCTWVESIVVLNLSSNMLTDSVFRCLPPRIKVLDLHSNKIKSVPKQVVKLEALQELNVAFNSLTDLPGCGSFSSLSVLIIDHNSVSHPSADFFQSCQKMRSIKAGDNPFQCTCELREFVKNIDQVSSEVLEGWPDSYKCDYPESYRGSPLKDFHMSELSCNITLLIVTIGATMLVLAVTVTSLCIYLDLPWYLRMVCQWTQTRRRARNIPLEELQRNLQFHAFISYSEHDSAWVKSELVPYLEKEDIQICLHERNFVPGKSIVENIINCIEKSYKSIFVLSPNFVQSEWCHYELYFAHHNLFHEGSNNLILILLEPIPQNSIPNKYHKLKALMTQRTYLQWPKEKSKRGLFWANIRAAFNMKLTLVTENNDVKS
Experimental: (§1) Toll-Like Receptor (TLR) stimulation is tested by assessing NF-κB activation in the TLR expressing cell lines. HEK-Blue h/mTLR2 cells have been stably transfected with human or mouse TLR2 and CD14. The activity of the test articles are tested on human and mouse TLR2, as potential agonists. The test articles are evaluated at seven concentrations and compared to control ligands (see list below). These steps are performed in triplicate.
[…] Starting from the 5 μg/mL working stock, a series of six 1:4 serial dilutions were made by mixing 100 μL of the previous highest dilution with 300 μL sterile PBS.
(§2) The secreted embryonic alkaline phosphatase (SEAP) reporter is under the control of a promoter inducible by the transcription factor NF-κB. This reporter gene allows the monitoring of signaling through the TLR, based on the activation of NF-κB. In a 96-well plate (200 μL total volume) containing the appropriate cells (50,000-75,000 cells/well), 20 μL of the test article or the positive control ligand (HKLC) is added to the wells. The media added to the wells is designed for the detection of NF-κB induced SEAP expression. After a 16-24-hour incubation the optical density (OD) is read at 650 nm on a Molecular Devices SpectraMax 340PC absorbance detector.

mouse TLR2 = molecular target: T2, mouse TLR2 (Mus musculus, UniProt Q9QUN7); assay: HEK-Blue mTLR2 Dose Response (NF-κB SEAP reporter)
T2 construct: expressed in transfected cells; host or cells: HEK-Blue mTLR2
T2 sequence (Q9QUN7 25-784): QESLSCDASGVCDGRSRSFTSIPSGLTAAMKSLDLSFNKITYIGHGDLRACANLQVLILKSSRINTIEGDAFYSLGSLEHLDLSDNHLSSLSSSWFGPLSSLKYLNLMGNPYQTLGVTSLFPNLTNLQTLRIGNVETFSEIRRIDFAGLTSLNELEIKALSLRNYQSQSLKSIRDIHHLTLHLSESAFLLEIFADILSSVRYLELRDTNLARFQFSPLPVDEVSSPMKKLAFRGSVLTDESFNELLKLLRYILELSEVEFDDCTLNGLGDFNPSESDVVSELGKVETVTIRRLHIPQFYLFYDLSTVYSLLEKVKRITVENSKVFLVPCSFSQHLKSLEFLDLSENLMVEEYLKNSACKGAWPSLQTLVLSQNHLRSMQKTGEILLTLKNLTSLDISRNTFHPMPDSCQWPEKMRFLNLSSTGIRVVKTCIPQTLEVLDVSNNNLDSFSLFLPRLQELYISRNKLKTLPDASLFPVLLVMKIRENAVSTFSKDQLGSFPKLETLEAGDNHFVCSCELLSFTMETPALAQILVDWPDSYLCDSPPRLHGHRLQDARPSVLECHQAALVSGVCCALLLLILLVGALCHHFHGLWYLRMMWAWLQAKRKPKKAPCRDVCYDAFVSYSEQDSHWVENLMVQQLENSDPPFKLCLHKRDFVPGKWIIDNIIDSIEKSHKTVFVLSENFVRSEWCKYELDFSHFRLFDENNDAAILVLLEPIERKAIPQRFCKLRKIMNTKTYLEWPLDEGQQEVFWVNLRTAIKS
T2 sequence (Q9Y2C9 32-796 partner): as the sequence (Q9Y2C9 32-796 partner) above
Experimental: as §1
A 5 μg/mL working stock was then prepared for each compound from the 20 μg/mL dilution in sterile PBS. Starting from the 5 μg/mL working stock, a series of six 1:4 serial dilutions were made by mixing 100 μL of the previous highest dilution with 300 μL sterile PBS.
as §2

HEK-Blue Null1 cells = assay: HEK-Blue Null1 control cell line (control for human TLR2); settings: TLR2-free control cells
Experimental: as §2

HEK-Blue Null2 cells = assay: HEK-Blue Null2 control cell line (control for mouse TLR2); settings: TLR2-free control cells
Experimental: as §2

Structure (SMILES): CCCCCCCCCCCCCC[C@@H](C)C(=O)OC[C@H](CSC[C@H](N)C(=O)N[C@@H](CO)C(=O)NCCOCCOCCOCCOCCOCCOCCOCCOCCOCCOCCOCCOCCOCCOCCOCCOCCOCCOCCOCCOCCOCCOCCOCCOCCOCCOCCOCCOCCC(=O)NCC(N)=O)OC(=O)[C@H](C)CCCCCCCCCCCCCC [B6]
- Fold Induction (ratio of average induced value to average non-induced value) (human TLR2; 0.12 pg/mL): 9.4
- optical density (650 nm), Average (human TLR2; 0.12 pg/mL): 0.679
- optical density (650 nm), screenings 1-3 (human TLR2; 0.12 pg/mL): 0.591 and 0.742 and 0.704
- Fold Induction (human TLR2; 0.49 pg/mL): 16.1
- optical density (650 nm), Average (human TLR2; 0.49 pg/mL): 1.156
- optical density (650 nm), screenings 1-3 (human TLR2; 0.49 pg/mL): 1.230 and 1.151 and 1.088
- Fold Induction (human TLR2; 1.95 pg/mL): 24.8
- optical density (650 nm), Average (human TLR2; 1.95 pg/mL): 1.785
- optical density (650 nm), screenings 1-3 (human TLR2; 1.95 pg/mL): 1.755 and 1.776 and 1.824
- Fold Induction (human TLR2; 7.81 pg/mL): 30.4
- optical density (650 nm), Average (human TLR2; 7.81 pg/mL): 2.186
- optical density (650 nm), screenings 1-3 (human TLR2; 7.81 pg/mL): 2.154 and 2.186 and 2.219
- Fold Induction (human TLR2; 31.25 pg/mL): 35.1
- optical density (650 nm), Average (human TLR2; 31.25 pg/mL): 2.529
- optical density (650 nm), screenings 1-3 (human TLR2; 31.25 pg/mL): 2.512 and 2.527 and 2.547
- Fold Induction (human TLR2; 125 pg/mL): 34.3
- optical density (650 nm), Average (human TLR2; 125 pg/mL): 2.470
- optical density (650 nm), screenings 1-3 (human TLR2; 125 pg/mL): 2.522 and 2.466 and 2.422
- Fold Induction (human TLR2; 500 pg/mL): 36.6
- optical density (650 nm), Average (human TLR2; 500 pg/mL): 2.637
- optical density (650 nm), screenings 1-3 (human TLR2; 500 pg/mL): 2.649 and 2.606 and 2.656
- stimulatory (agonist) activity for hTLR2 (human TLR2): possesses stimulatory activity
- EC50 (human TLR2; agonism of hTLR2, HEK-Blue hTLR2): 0.34 nM
- stimulatory (agonist) activity for mTLR2 (mouse TLR2): possesses stimulatory activity
- stimulatory response in HEK-Blue Null1 (human) cells (HEK-Blue Null1 cells): not observed
- stimulatory response in HEK-Blue Null2 (mouse) cells (HEK-Blue Null2 cells): not observed

Structure (SMILES): CCCCCCCCCCCCCC[C@H](C)C(=O)OC[C@H](CSC[C@H](N)C(=O)N[C@@H](CO)C(=O)NCCOCCOCCOCCOCCOCCOCCOCCOCCOCCOCCOCCOCCOCCOCCOCCOCCOCCOCCOCCOCCOCCOCCOCCOCCOCCOCCOCCOCCC(=O)NCC(N)=O)OC(=O)[C@@H](C)CCCCCCCCCCCCCC [B8]
- Fold Induction (ratio of average induced value to average non-induced value) (human TLR2; 0.12 pg/mL): 25.4
- optical density (650 nm), Average (human TLR2; 0.12 pg/mL): 1.928
- optical density (650 nm), screenings 1-3 (human TLR2; 0.12 pg/mL): 1.936 and 1.856 and 1.992
- Fold Induction (human TLR2; 0.49 pg/mL): 29.5
- optical density (650 nm), Average (human TLR2; 0.49 pg/mL): 2.243
- optical density (650 nm), screenings 1-3 (human TLR2; 0.49 pg/mL): 2.345 and 2.229 and 2.154
- Fold Induction (human TLR2; 1.95 pg/mL): 32.4
- optical density (650 nm), Average (human TLR2; 1.95 pg/mL): 2.465
- optical density (650 nm), screenings 1-3 (human TLR2; 1.95 pg/mL): 2.469 and 2.420 and 2.507
- Fold Induction (human TLR2; 7.81 pg/mL): 33.8
- optical density (650 nm), Average (human TLR2; 7.81 pg/mL): 2.565
- optical density (650 nm), screenings 1-3 (human TLR2; 7.81 pg/mL): 2.326 and 2.636 and 2.734
- Fold Induction (human TLR2; 31.25 pg/mL): 34.9
- optical density (650 nm), Average (human TLR2; 31.25 pg/mL): 2.652
- optical density (650 nm), screenings 1-3 (human TLR2; 31.25 pg/mL): 2.563 and 2.643 and 2.751
- Fold Induction (human TLR2; 125 pg/mL): 36
- optical density (650 nm), Average (human TLR2; 125 pg/mL): 2.735
- optical density (650 nm), screenings 1-3 (human TLR2; 125 pg/mL): 2.746 and 2.716 and 2.743
- Fold Induction (human TLR2; 500 pg/mL): 35.1
- optical density (650 nm), Average (human TLR2; 500 pg/mL): 2.668
- optical density (650 nm), screenings 1-3 (human TLR2; 500 pg/mL): 2.648 and 2.664 and 2.693
- stimulatory (agonist) activity for hTLR2 (human TLR2): possesses stimulatory activity
- stimulatory (agonist) activity for mTLR2 (mouse TLR2): possesses stimulatory activity
- stimulatory response in HEK-Blue Null1 (human) cells (HEK-Blue Null1 cells): not observed
- stimulatory response in HEK-Blue Null2 (mouse) cells (HEK-Blue Null2 cells): not observed

Structure (SMILES): CCCCCCCCCCCCCC[C@H](C)C(=O)OCC[C@H](CSC[C@H](N)C(=O)N[C@@H](CO)C(=O)NCCOCCOCCOCCOCCOCCOCCOCCOCCOCCOCCOCCOCCOCCOCCOCCOCCOCCOCCOCCOCCOCCOCCOCCOCCOCCOCCOCCOCCC(=O)NCC(N)=O)OC(=O)[C@@H](C)CCCCCCCCCCCCCC [B16]
- optical density (650 nm), Average (human TLR2; 0.12 pg/mL): 0.666
- optical density (650 nm), screenings 1-3 (human TLR2; 0.12 pg/mL): 0.688 and 0.591 and 0.718
- optical density (650 nm), Average (human TLR2; 0.49 pg/mL): 1.099
- optical density (650 nm), screenings 1-3 (human TLR2; 0.49 pg/mL): 1.080 and 1.097 and 1.121
- optical density (650 nm), Average (human TLR2; 1.95 pg/mL): 1.521
- optical density (650 nm), screenings 1-3 (human TLR2; 1.95 pg/mL): 1.478 and 1.513 and 1.573
- optical density (650 nm), Average (human TLR2; 7.81 pg/mL): 1.978
- optical density (650 nm), screenings 1-3 (human TLR2; 7.81 pg/mL): 1.903 and 1.897 and 2.133
- optical density (650 nm), Average (human TLR2; 31.25 pg/mL): 2.252
- optical density (650 nm), screenings 1-3 (human TLR2; 31.25 pg/mL): 2.093 and 2.297 and 2.367
- optical density (650 nm), Average (human TLR2; 125 pg/mL): 2.540
- optical density (650 nm), screenings 1-3 (human TLR2; 125 pg/mL): 2.531 and 2.544 and 2.545
- optical density (650 nm), Average (human TLR2; 500 pg/mL): 2.475
- optical density (650 nm), screenings 1-3 (human TLR2; 500 pg/mL): 2.466 and 2.488 and 2.472
- stimulatory (agonist) activity for hTLR2 (human TLR2): possesses stimulatory activity
- stimulatory (agonist) activity for mTLR2 (mouse TLR2): possesses stimulatory activity
- stimulatory response in HEK-Blue Null1 (human) cells (HEK-Blue Null1 cells): not observed
- stimulatory response in HEK-Blue Null2 (mouse) cells (HEK-Blue Null2 cells): not observed
